Assay results taken from the supplement of paper PMC10307832.

Experiments:
Experiment in all cases: relative viability (nuclei count vs DMSO), 5 days (fraction); higher = more cells survive
[1] = compound: C/C(=N\NC(=S)N1CCC1)/C2=CC=CC=N2 + CC(=O)Nc1cccc(-n2c(=O)n(C3CC3)c(=O)c3c(Nc4ccc(I)cc4F)n(C)c(=O)c(C)c32)c1 [Trametinib] (partner 0.02 µM)
Summary of the method: (§1)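 Dosing by pin tool came one day after lung cancer cell lines were seeded in 1536-well plates, using either one drug or a fixed anchor-drug dose plus five library-drug doses (not always all listed) in √10 steps. After 5 days, nuclei were counted on 4× images. Relative viability is treated-well nuclei count divided by vehicle-well nuclei count, and values are medians of duplicate plates.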

[2] = compound: C/C(=N\NC(=S)N1CCC1)/C2=CC=CC=N2 + CC(C)C[C@H](NC(=O)[C@H](Cc1ccccc1)NC(=O)c1cnccn1)B(O)O [Bortezomib] (partner 0.002 µM)
Summary of the method: as §1

[3] = compound: C/C(=N\NC(=S)N1CCC1)/C2=CC=CC=N2 + CS(=O)(=O)N1CCN(Cc2cc3nc(-c4cccc5[nH]ncc45)nc(N4CCOCC4)c3s2)CC1 [Pictilisib] (partner 1 µM)
Summary of the method: as §1

[4] = compound: C/C(=N\NC(=S)N1CCC1)/C2=CC=CC=N2 + O=C(c1cc(Cc2n[nH]c(=O)c3ccccc23)ccc1F)N1CCN(C(=O)C2CC2)CC1 [Olaparib] (partner 8 µM)
Summary of the method: as §1

Cell Line	relative viability ([1]; first compound 0.05 µM)	relative viability ([1]; first compound 0.1581 µM)	relative viability ([1]; first compound 0.5 µM)	relative viability ([1]; first compound 1.581 µM)	relative viability ([1]; first compound 5 µM)	relative viability ([2]; first compound 0.05 µM)	relative viability ([2]; first compound 0.1581 µM)	relative viability ([2]; first compound 0.5 µM)	relative viability ([2]; first compound 1.581 µM)	relative viability ([2]; first compound 5 µM)	relative viability ([3]; first compound 0.05 µM)	relative viability ([3]; first compound 0.1581 µM)	relative viability ([3]; first compound 0.5 µM)	relative viability ([3]; first compound 1.581 µM)	relative viability ([3]; first compound 5 µM)	relative viability ([4]; first compound 0.05 µM)	relative viability ([4]; first compound 0.1581 µM)	relative viability ([4]; first compound 0.5 µM)	relative viability ([4]; first compound 1.581 µM)	relative viability ([4]; first compound 5 µM)
NCI-H2085	0.183	0.19	0.216	0.153	0.224	0.33	0.298	0.323	0.269	0.262	0.27	0.301	0.353	0.326	0.296	0.307	0.25	0.293	0.281	0.278
NCI-H2087	0.104	0.123	0.11	0.108	0.0815	0.219	0.223	0.309	0.132	0.125	0.302	0.219	0.258	0.205	0.153	0.123	0.113	0.138	0.144	0.0767
NCI-H2126	0.299	0.574	0.189	0.183	0.23	0.364	0.244	0.223	0.201	0.186	0.247	0.267	0.254	0.227	0.216	0.344	0.889	0.186	0.191	0.17
NCI-H2228	0.124	0.151	0.137	0.0911	0.135	0.169	0.295	0.161	0.119	0.179	0.148	0.285	0.168	0.163	0.12	0.125	0.142	0.138	0.115	0.107
NCI-H2347	0.247	0.271	0.244	0.294	0.227	0.299	0.329	0.401	0.268	0.263	0.275	0.311	0.286	0.275	0.253	0.334	0.294	0.298	0.274	0.28
NCI-H2405	0.236	0.278	0.24	0.239	0.3	0.275	0.31	0.322	0.286	0.989	0.185	0.206	0.232	0.209	0.275	0.259	0.272	0.268	0.252	0.208
NCI-H3122	0.0866	0.159	0.0947	0.116	0.125	0.17	0.139	0.222	0.244	0.203	0.15	0.129	0.167	0.23	0.187	0.118	0.291	0.0987	0.145	0.142
PC-3 [JPC-3]	0.402	0.409	0.318	0.357	0.342	0.377	0.318	0.312	0.292	0.215	0.278	0.319	0.31	0.279	0.221	0.581	0.506	0.432	0.382	0.351
PC-14	0.0651	0.0788	0.0488	0.039	0.0546	0.114	0.106	0.0629	0.0768	0.0781	0.0639	0.0478	0.0584	0.0411	0.0523	0.0569	0.064	0.0532	0.0383	0.0401
RERF-LC-KJ	0.242	0.241	0.204	0.222	0.214	0.256	0.298	0.304	0.243	0.267	0.19	0.17	0.173	0.18	0.191	0.255	0.248	0.274	0.271	0.255
SK-LU-1	0.294	0.278	0.254	0.191	0.258	0.218	0.263	0.212	0.194	0.268	0.166	0.188	0.212	0.158	0.139	0.162	0.175	0.22	0.135	0.15
SW 1573	0.0975	0.0992	0.119	0.0672	0.0635	0.143	0.115	0.151	0.117	0.087	0.102	0.0856	0.0985	0.104	0.0817	0.0806	0.0899	0.138	0.0631	0.0687
UMC-11	0.164	0.164	0.159	0.113	0.129	0.175	0.173	0.141	0.141	0.101	0.19	0.174	0.189	0.144	0.133	0.163	0.122	0.137	0.131	0.106
